Laboratory results published in patent US7507717B2 (Xenome Ltd., priority 2002, dated 2009).
Residues, ends and D or L forms follow the SMILES beside them.

Target: T1, human noradrenaline transporter (hNET) (Homo sapiens, UniProt P23975)
T1 construct: expressed in transfected cells; host or cells: COS-7 cells (ATCC), transient transfection with metafectene
Assay: biochemical
Type: binding
Conditions: for IC50: Av IC50 Displacement of 3H-nisoxetine from hNET

T1 sequence (P23975 whole entry): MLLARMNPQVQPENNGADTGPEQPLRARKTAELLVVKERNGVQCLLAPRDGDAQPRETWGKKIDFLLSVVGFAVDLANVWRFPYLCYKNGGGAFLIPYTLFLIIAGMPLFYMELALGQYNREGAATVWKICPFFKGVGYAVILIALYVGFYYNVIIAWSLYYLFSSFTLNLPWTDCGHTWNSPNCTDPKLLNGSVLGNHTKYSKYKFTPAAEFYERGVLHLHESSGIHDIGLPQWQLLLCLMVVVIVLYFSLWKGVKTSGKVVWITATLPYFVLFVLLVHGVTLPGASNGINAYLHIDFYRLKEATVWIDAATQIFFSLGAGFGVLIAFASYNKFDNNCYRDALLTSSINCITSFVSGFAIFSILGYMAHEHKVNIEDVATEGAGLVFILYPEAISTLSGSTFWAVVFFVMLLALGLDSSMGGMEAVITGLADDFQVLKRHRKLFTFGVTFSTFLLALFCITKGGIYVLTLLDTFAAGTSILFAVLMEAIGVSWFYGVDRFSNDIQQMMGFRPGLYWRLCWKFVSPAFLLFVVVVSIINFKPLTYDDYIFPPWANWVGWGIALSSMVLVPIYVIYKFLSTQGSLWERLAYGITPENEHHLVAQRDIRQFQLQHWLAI

Compound	IC50	Av IC50 Displacement of 3H-nisoxetine from hNET
CC(C)C[C@@H]1NC(=O)[C@H](CCCCN)NC(=O)[C@H](Cc2ccc(O)cc2)NC(=O)CNC(=O)[C@@H]2CSSC[C@H](NC1=O)C(=O)N[C@@H](Cc1c[nH]cn1)C(=O)N1CCC[C@H]1C(=O)N[C@H](C(N)=O)CSSC[C@H](NC(=O)[C@@H](NC(=O)CNC(=O)[C@@H](N)CC(=O)O)C(C)C)C(=O)N2 [compound 151]	3550 nM	
CC(C)C[C@@H]1NC(=O)[C@H](CCCCN)NC(=O)[C@H](Cc2ccc(O)cc2)NC(=O)CNC(=O)[C@@H]2CSSC[C@H](NC1=O)C(=O)N[C@@H](Cc1c[nH]cn1)C(=O)N1CCC[C@H]1C(=O)N[C@H](C(N)=O)CSSC[C@H](NC(=O)[C@@H](NC(=O)[C@H](CC(=O)O)NC(=O)[C@@H](N)CC(N)=O)C(C)C)C(=O)N2 [compound 63] (HELM PEPTIDE1{N.D.V.C.C.G.Y.K.L.C.H.P.C.[am]}$PEPTIDE1,PEPTIDE1,4:R3-13:R3|PEPTIDE1,PEPTIDE1,5:R3-10:R3$$$V2.0)	191 nM	
CC(C)C[C@@H]1NC(=O)[C@H](CCCCN)NC(=O)[C@H](CCC(=O)O)NC(=O)CNC(=O)[C@@H]2CSSC[C@H](NC1=O)C(=O)N[C@@H](Cc1c[nH]cn1)C(=O)N1CCC[C@H]1C(=O)N[C@H](C(N)=O)CSSC[C@H](NC(=O)[C@@H](NC(=O)CNC(=O)[C@H](CC(N)=O)NC(=O)[C@@H](N)Cc1ccc(O)cc1)C(C)C)C(=O)N2 [compound 195] (HELM PEPTIDE1{Y.N.G.V.C.C.G.E.K.L.C.H.P.C.[am]}$PEPTIDE1,PEPTIDE1,5:R3-14:R3|PEPTIDE1,PEPTIDE1,6:R3-11:R3$$$V2.0)	170000 nM	
CC(C)C[C@@H]1NC(=O)[C@H](CCCCN)NC(=O)[C@H](Cc2ccc(O)cc2)NC(=O)CNC(=O)[C@@H]2CSSC[C@H](NC1=O)C(=O)N[C@@H](Cc1c[nH]cn1)C(=O)N[C@@H](Cc1ccc(O)cc1)C(=O)N[C@H](C(N)=O)CSSC[C@H](NC(=O)[C@@H](NC(=O)CNC(=O)[C@@H](N)CC(N)=O)C(C)C)C(=O)N2 [compound 165]	7080 nM	
CC(C)C[C@@H]1NC(=O)[C@H](CCCCN)NC(=O)[C@H](Cc2ccc(O)cc2)NC(=O)CNC(=O)[C@@H]2CSSC[C@H](NC1=O)C(=O)N[C@@H](Cc1c[nH]cn1)C(=O)N1CCC[C@H]1C(=O)N[C@H](C(N)=O)CSSC[C@H](NC(=O)[C@@H](NC(=O)[C@H](CCCCN)NC(=O)[C@H](CC(N)=O)NC(=O)[C@@H](N)Cc1ccc(O)cc1)C(C)C)C(=O)N2 [compound 110] (HELM PEPTIDE1{Y.N.K.V.C.C.G.Y.K.L.C.H.P.C.[am]}$PEPTIDE1,PEPTIDE1,5:R3-14:R3|PEPTIDE1,PEPTIDE1,6:R3-11:R3$$$V2.0)	977 nM	
CC(C)C[C@@H]1NC(=O)[C@H](CCCCN)NC(=O)[C@H](Cc2ccc(O)cc2)NC(=O)CNC(=O)[C@@H]2CSSC[C@H](NC1=O)C(=O)N[C@@H](Cc1c[nH]c3ccccc13)C(=O)N1CCC[C@H]1C(=O)N[C@H](C(N)=O)CSSC[C@H](NC(=O)[C@@H](NC(=O)CNC(=O)[C@@H](N)CC(N)=O)C(C)C)C(=O)N2 [compound 59] (HELM PEPTIDE1{N.G.V.C.C.G.Y.K.L.C.W.P.C.[am]}$PEPTIDE1,PEPTIDE1,4:R3-13:R3|PEPTIDE1,PEPTIDE1,5:R3-10:R3$$$V2.0)	174 nM	
CC(C)C[C@@H]1NC(=O)[C@H](CCCCN)NC(=O)[C@H](Cc2ccc(O)cc2)NC(=O)CNC(=O)[C@@H]2CSSC[C@H](NC1=O)C(=O)N[C@@H](CCCNC(=N)N)C(=O)N[C@@H](C)C(=O)N[C@H](C(N)=O)CSSC[C@H](NC(=O)[C@@H](NC(=O)CNC(=O)[C@H](CCCNC(=N)N)NC(=O)[C@@H](N)Cc1c[nH]c3ccccc13)C(C)C)C(=O)N2 [compound 38]	102 nM	
CC(C)C[C@@H]1NC(=O)[C@H](Cc2c[nH]cn2)NC(=O)[C@H](Cc2ccc(O)cc2)NC(=O)CNC(=O)[C@@H]2CSSC[C@H](NC1=O)C(=O)N[C@@H](Cc1c[nH]cn1)C(=O)N1CCC[C@H]1C(=O)N[C@H](C(N)=O)CSSC[C@H](NC(=O)[C@@H](NC(=O)CNC(=O)[C@@H](N)CC(N)=O)C(C)C)C(=O)N2 [compound 181] (HELM PEPTIDE1{N.G.V.C.C.G.Y.H.L.C.H.P.C.[am]}$PEPTIDE1,PEPTIDE1,4:R3-13:R3|PEPTIDE1,PEPTIDE1,5:R3-10:R3$$$V2.0)	47900 nM	
CC(C)C[C@@H]1NC(=O)CNC(=O)[C@@H]2CSSC[C@H](NC(=O)[C@H](CC(C)C)NC(=O)[C@H](CCCCN)NC1=O)C(=O)N[C@@H](Cc1c[nH]cn1)C(=O)N1CCC[C@H]1C(=O)N[C@H](C(N)=O)CSSC[C@H](NC(=O)[C@@H](NC(=O)CNC(=O)[C@H](CC(N)=O)NC(=O)[C@@H](N)Cc1ccc(O)cc1)C(C)C)C(=O)N2 [compound 171] (HELM PEPTIDE1{Y.N.G.V.C.C.G.L.K.L.C.H.P.C.[am]}$PEPTIDE1,PEPTIDE1,5:R3-14:R3|PEPTIDE1,PEPTIDE1,6:R3-11:R3$$$V2.0)	10700 nM	
YNGVCCGYILCHPC [compound 208]		−2.00
CC(C)C[C@@H]1NC(=O)[C@H](CCCCN)NC(=O)[C@H](Cc2ccc(O)cc2)NC(=O)CNC(=O)[C@@H]2CSSC[C@H](NC1=O)C(=O)N[C@@H](Cc1c[nH]cn1)C(=O)N1CCC[C@H]1C(=O)N[C@H](C(N)=O)CSSC[C@H](NC(=O)[C@@H](NC(=O)CNC(=O)[C@@H](N)CCCNC(=N)N)C(C)C)C(=O)N2 [compound 98]	513 nM	
YNGVCCGYKLCEPC [compound 210]		−2.00
CC(=O)N[C@@H](Cc1ccc(O)cc1)C(=O)N[C@@H](CC(N)=O)C(=O)NCC(=O)N[C@H](C(=O)N[C@H]1CSSC[C@@H](C(N)=O)NC(=O)[C@@H]2CCCN2C(=O)[C@H](Cc2c[nH]cn2)NC(=O)[C@@H]2CSSC[C@H](NC1=O)C(=O)NCC(=O)N[C@@H](Cc1ccc(O)cc1)C(=O)N[C@@H](CCCCN)C(=O)N[C@@H](CC(C)C)C(=O)N2)C(C)C [compound 161]	6170 nM	
CC(C)C[C@@H]1NC(=O)[C@H](CCCCN)NC(=O)[C@H](Cc2ccc(O)cc2)NC(=O)CNC(=O)[C@@H]2CSSC[C@H](NC1=O)C(=O)N[C@@H](Cc1c[nH]cn1)C(=O)N1CCC[C@H]1C(=O)N[C@H](C(N)=O)CSSC[C@H](NC(=O)[C@@H](NC(=O)CNC(=O)[C@H](CC(N)=O)NC(=O)[C@@H](N)Cc1ccc(O)cc1)C(C)C)C(=O)N2 [compound 116]	1120 nM	
CC(=O)N[C@@H](CC(N)=O)C(=O)NCC(=O)N[C@H](C(=O)N[C@H]1CSSC[C@@H](C(N)=O)NC(=O)[C@@H]2CCCN2C(=O)[C@H](Cc2c[nH]cn2)NC(=O)[C@@H]2CSSC[C@H](NC1=O)C(=O)NCC(=O)N[C@@H](Cc1ccc(O)cc1)C(=O)N[C@@H](CCCCN)C(=O)N[C@@H](CC(C)C)C(=O)N2)C(C)C [compound 152]	3630 nM	
YNGVCCGYKDCHPC [compound 209]		−2.00
CC(C)C[C@@H]1NC(=O)[C@H](CCCCN)NC(=O)[C@H](Cc2ccc(O)cc2)NC(=O)CNC(=O)[C@@H]2CSSC[C@H](NC1=O)C(=O)N[C@@H](CCCNC(=N)N)C(=O)N[C@@H](C)C(=O)N[C@H](C(N)=O)CSSC[C@H](NC(=O)[C@@H](NC(=O)CNC(=O)[C@H](CC(N)=O)NC(=O)[C@@H](N)Cc1c[nH]c3ccccc13)C(C)C)C(=O)N2 [compound 69] (HELM PEPTIDE1{W.N.G.V.C.C.G.Y.K.L.C.R.A.C.[am]}$PEPTIDE1,PEPTIDE1,5:R3-14:R3|PEPTIDE1,PEPTIDE1,6:R3-11:R3$$$V2.0)	219 nM	
